Measured values published in patent publication US12344610B2, “APOL1 inhibitors and methods of use” (Maze Therapeutics, Inc., priority 2022, dated 2025).

Test system: HEK293 clonal cell line overexpressing APOL1 G1
Assay: APOL1 G1 HEK293 cell rescue assay (Example B3)
Format: cell-based
Conditions: Homo sapiens, HEK293, HEK293 clonal line overexpressing APOL1 G1; geometric mean of at least 2 runs; † = single run; ¥ = concentration at 50% rescue estimated (no sigmoidal curve)
Method in brief: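 HEK293 clonal line overexpressing APOL1 G1; EC50 is half-maximal reversal of APOL1-induced cell death. Values are the geometric mean of ≥2 runs on separate days, each run the average of duplicate wells. Where no sigmoidal curve could be fitted, the concentration giving 50% rescue was estimated.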

CN1c2ccc(OCCN3CCC4(CC3)C(=O)Nc3ccc(Cl)cc34)cc2CCS1(=O)=O [Compound 103, 6-(2-{5-chloro-2-oxo-1,2-dihydrospiro[indole-3,4′-piperidin]-1′-yl}ethoxy)-1-methyl-3,4-dihydro-1H-2λ^6,1-benzothiazine-2,2-dione]
EC50: 124 nM

CN1c2ccc(OCCN3CCC4(CC3)C(=O)Nc3ccc(C#N)cc34)cc2CCS1(=O)=O [Compound 104, 1′-{2-[(1-methyl-2,2-dioxo-3,4-dihydro-1H-2λ^6,1-benzothiazin-6-yl)oxy]ethyl}-2-oxo-1,2-dihydrospiro[indole-3,4′-piperidine]-5-carbonitrile]
EC50: 356 nM

N#Cc1ccc2c(c1)C1(CCN(CCOc3ccc4c(c3)CCC(=O)N4CC(F)F)CC1)C(=O)N2 [Compound 105, 1′-(2-{[1-(2,2-difluoroethyl)-2-oxo-1,2,3,4-tetrahydroquinolin-6-yl]oxy}ethyl)-2-oxo-1,2-dihydrospiro[indole-3,4′-piperidine]-5-carbonitrile]
EC50: 175 nM

O=C1CCc2cc(OCCN3CCC4(CC3)C(=O)Nc3ccc(Cl)cc34)ccc2N1CC(F)F [Compound 106, 5-chloro-1′-(2-{[1-(2,2-difluoroethyl)-2-oxo-1,2,3,4-tetrahydroquinolin-6-yl]oxy}ethyl)-1,2-dihydrospiro[indole-3,4′-piperidin]-2-one]
EC50: 122 nM

CS(=O)(=O)c1ccc(OCCN2CCC3(CC2)C(=O)Nc2ccc(C#N)cc23)cc1C(F)(F)F [Compound 107, 1′-{2-[4-methanesulfonyl-3-(trifluoromethyl)phenoxy]ethyl}-2-oxo-1,2-dihydrospiro[indole-3,4′-piperidine]-5-carbonitrile]
EC50: 120 nM

CS(=O)(=O)c1ccc(OCCN2CCC3(CC2)C(=O)Nc2ccc(Cl)cc23)cc1C(F)(F)F [Compound 108, 5-chloro-1′-{2-[4-methanesulfonyl-3-(trifluoromethyl)phenoxy]ethyl}-1,2-dihydrospiro[indole-3,4′-piperidin]-2-one]
EC50: 49.7 nM

CS(=O)(=O)C1(c2ccc(OCCN3CCC4(CC3)C(=O)Nc3ccc(C#N)cc34)cc2)COC1 [Compound 109, 1′-{2-[4-(3-methanesulfonyloxetan-3-yl)phenoxy]ethyl}-2-oxo-1,2-dihydrospiro[indole-3,4′-piperidine]-5-carbonitrile]
EC50: 321 nM

Cc1cc(OCCN2CCC3(CC2)C(=O)Nc2ccc(Cl)cc23)ccc1S(C)(=O)=O [Compound 110, 5-chloro-1′-[2-(4-methanesulfonyl-3-methylphenoxy)ethyl]-1,2-dihydrospiro[indole-3,4′-piperidin]-2-one]
EC50: 100 nM

Cc1cc(OCCN2CCC3(CC2)C(=O)Nc2ccc(C#N)cc23)ccc1S(C)(=O)=O [Compound 111, 1′-[2-(4-methanesulfonyl-3-methylphenoxy)ethyl]-2-oxo-1,2-dihydrospiro[indole-3,4′-piperidine]-5-carbonitrile]
EC50: 246 nM

O=C1Nc2ccc(Cl)cc2C12CCN(CCOc1ccc(S(=O)(=O)C(F)F)cc1)CC2 [Compound 112, 5-chloro-1′-[2-(4-difluoromethanesulfonylphenoxy)ethyl]-1,2-dihydrospiro[indole-3,4′-piperidin]-2-one]
EC50: 77.5 nM

N#Cc1ccc2c(c1)C1(CCN(CCOc3ccc(S(=O)(=O)C(F)F)cc3)CC1)C(=O)N2 [Compound 113, 1′-[2-(4-difluoromethanesulfonylphenoxy)ethyl]-2-oxo-1,2-dihydrospiro[indole-3,4′-piperidine]-5-carbonitrile]
EC50: 176 nM

O=C1CCc2cc(OCCN3CCC4(CC3)C(=O)Nc3ccc(Cl)cc34)ccc2N1[C@H]1C[C@@H](O)C1 [Compound 114, 5-chloro-1′-[2-({2-oxo-1-[(cis)-3-hydroxycyclobutyl]-1,2,3,4-tetrahydroquinolin-6-yl}oxy)ethyl]-1,2-dihydrospiro[indole-3,4′-piperidin]-2-one]
EC50: 128 nM

CN(c1c(F)cc(OCCN2CCC3(CC2)C(=O)Nc2ccc(C#N)cc23)cc1F)S(C)(=O)=O [Compound 128, N-[4-(2-{5-cyano-2-oxo-1,2-dihydrospiro[indole-3,4′-piperidin]-1′-yl}ethoxy)-2,6-difluorophenyl]-N-methylmethanesulfonamide]
EC50: 158 nM

Cc1cc(OCCN2CCC3(CC2)C(=O)Nc2ccc(Cl)cc23)cc(C)c1S(C)(=O)=O [Compound 129, 5-chloro-1′-[2-(4-methanesulfonyl-3,5-dimethylphenoxy)ethyl]-1,2-dihydrospiro[indole-3,4′-piperidin]-2-one]
EC50: 72.8 nM

Cn1c(=O)oc2cc(OCCN3CCC4(CC3)C(=O)Nc3ccc(Cl)cc34)ccc21 [Compound 131, 5-chloro-1′-{2-[(3-methyl-2-oxo-2,3-dihydro-1,3-benzoxazol-6-yl)oxy]ethyl}-1,2-dihydrospiro[indole-3,4′-piperidin]-2-one]
EC50: 186 nM

Cn1c(=O)oc2cc(OCCN3CCC4(CC3)C(=O)Nc3ccc(C#N)cc34)ccc21 [Compound 132, 1′-{2-[(3-methyl-2-oxo-2,3-dihydro-1,3-benzoxazol-6-yl)oxy]ethyl}-2-oxo-1,2-dihydrospiro[indole-3,4′-piperidine]-5-carbonitrile]
EC50: 685 nM

CS(=O)(=O)C1(c2c(F)cc(OCCN3CCC4(CC3)C(=O)Nc3ccc(Cl)cc34)cc2F)COC1 [Compound 136, 5-chloro-1′-{2-[3,5-difluoro-4-(3-methanesulfonyloxetan-3-yl)phenoxy]ethyl}-1,2-dihydrospiro[indole-3,4′-piperidin]-2-one]
EC50: 49.4 nM

CC(c1c(F)cc(OCCN2CCC3(CC2)C(=O)Nc2ccc(C#N)cc23)cc1F)S(C)(=O)=O (stereo not shown) [Compound 137, 1′-{2-[3,5-difluoro-4-(1-methanesulfonylethyl)phenoxy]ethyl}-2-oxo-1,2-dihydrospiro[indole-3,4′-piperidine]-5-carbonitrile]
EC50: 249 nM

Cc1cc(OCCN2CCC3(CC2)C(=O)Nc2ccc(C#N)cc23)cnc1S(C)(=O)=O [Compound 140, 1′-{2-[(6-methanesulfonyl-5-methylpyridin-3-yl)oxy]ethyl}-2-oxo-1,2-dihydrospiro[indole-3,4′-piperidine]-5-carbonitrile]
EC50: 600 nM

CC(C)N1C(=O)Cc2cc(OCCN3CCC4(CC3)C(=O)Nc3ccc(C#N)cc34)ccc21 [Compound 144, 2-oxo-1′-(2-{[2-oxo-1-(propan-2-yl)-2,3-dihydro-1H-indol-5-yl]oxy}ethyl)-1,2-dihydrospiro[indole-3,4′-piperidine]-5-carbonitrile]
EC50: 246 nM

CC(C)N1C(=O)Cc2cc(OCCN3CCC4(CC3)C(=O)Nc3ccc(Cl)cc34)ccc21 [Compound 145, 5-chloro-1′-(2-{[2-oxo-1-(propan-2-yl)-2,3-dihydro-1H-indol-5-yl]oxy}ethyl)-1,2-dihydrospiro[indole-3,4′-piperidin]-2-one]
EC50: 98.5 nM

CN1Cc2cc(OCCN3CCC4(CC3)C(=O)Nc3ccc(Cl)cc34)ccc2C1=O [Compound 146, 5-chloro-1′-{2-[(2-methyl-1-oxo-2,3-dihydro-1H-isoindol-5-yl)oxy]ethyl}-1,2-dihydrospiro[indole-3,4′-piperidin]-2-one]
EC50: 221 nM

CN=S(C)(=O)c1ccc(OCCN2CCC3(CC2)C(=O)Nc2ccc(Cl)cc23)cc1 (stereo not shown) [Compound 147, 5-chloro-1′-(2-{4-[methyl(methylimino)oxo-λ^6-sulfanyl]phenoxy}ethyl)-1,2-dihydrospiro[indole-3,4′-piperidin]-2-one]
EC50: 183 nM

CN=S(C)(=O)c1ccc(OCCN2CCC3(CC2)C(=O)Nc2ccc(C#N)cc23)cc1 (stereo not shown) [Compound 150, 1′-(2-{4-[methyl(methylimino)oxo-λ^6-sulfanyl]phenoxy}ethyl)-2-oxo-1,2-dihydrospiro[indole-3,4′-piperidine]-5-carbonitrile]
EC50: 1540 nM

CN1CCc2cc(OCCN3CCC4(CC3)C(=O)Nc3ccc(Cl)cc34)ccc2S1(=O)=O [Compound 153, 6-(2-{5-chloro-2-oxo-1,2-dihydrospiro[indole-3,4′-piperidin]-1′-yl}ethoxy)-2-methyl-3,4-dihydro-2H-1λ^6,2-benzothiazine-1,1-dione]
EC50: 96.2 nM

CN1CCc2cc(OCCN3CCC4(CC3)C(=O)Nc3ccc(C#N)cc34)ccc2S1(=O)=O [Compound 154, 1′-{2-[(2-methyl-1,1-dioxo-3,4-dihydro-2H-1λ^6,2-benzothiazin-6-yl)oxy]ethyl}-2-oxo-1,2-dihydrospiro[indole-3,4′-piperidine]-5-carbonitrile]
EC50: 252 nM

CS(=O)(=O)c1ccc(OCCN2CCC3(CC2)C(=O)Nc2ccc(Cl)cc23)cc1Cl [Compound 155, 5-chloro-1′-[2-(3-chloro-4-methanesulfonylphenoxy)ethyl]-1,2-dihydrospiro[indole-3,4′-piperidin]-2-one]
EC50: 67 nM

CS(=O)(=O)c1ccc(OCCN2CCC3(CC2)C(=O)Nc2ccc(C#N)cc23)cc1Cl [Compound 156, 1′-[2-(3-chloro-4-methanesulfonylphenoxy)ethyl]-2-oxo-1,2-dihydrospiro[indole-3,4′-piperidine]-5-carbonitrile]
EC50: 153 nM

CC(C)(C#N)c1ccc(OCCN2CCC3(CC2)C(=O)Nc2ccc(C#N)cc23)cc1 [Compound 157, 1′-{2-[4-(1-cyano-1-methylethyl)phenoxy]ethyl}-2-oxo-1,2-dihydrospiro[indole-3,4′-piperidine]-5-carbonitrile]
EC50: 152 nM

CC1(S(=O)(=O)c2ccc(OCCN3CCC4(CC3)C(=O)Nc3ccc(Cl)cc34)cn2)COC1 [Compound 158, 5-chloro-1′-[2-({6-[(3-methyloxetan-3-yl)sulfonyl]pyridin-3-yl}oxy)ethyl]-1,2-dihydrospiro[indole-3,4′-piperidin]-2-one]
EC50: 252 nM

CS(=O)(=O)C1(c2ccc(OCCN3CCC4(CC3)C(=O)N(CCO)c3ccc(Cl)cc34)cc2)COC1 [Compound 160, 5-chloro-1-(2-hydroxyethyl)-1′-{2-[4-(3-methanesulfonyloxetan-3-yl)phenoxy]ethyl}-1,2-dihydrospiro[indole-3,4′-piperidin]-2-one]
EC50: 244 nM
